{"source": "the supplement of paper PMC10883282", "system": "VA-ES-BJ", "experiment": "relative viability vs DMSO control (72 h) (fraction); higher = more viable cells", "outline": "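Relative viability was measured with ATPLite and expressed as percent growth, averaged across up to triplicate wells. Sarcoma cell lines had been seeded in 384-well plates to reach 80–90% confluence, dosed after 24 h, and incubated 72 h at 37 °C, 5% CO2. All data were rescaled on a scale where 1 is full and 0 is none.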", "note": "± gives the standard deviation of the averaged measurements."}
{"smiles": "C=CC(=O)N1CCC([C@@H]2CCNc3c(C(N)=O)c(-c4ccc(Oc5ccccc5)cc4)nn32)CC1", "note": "[Zanubrutinib]", "values": [{"measurement": "relative viability", "setting": "0.00017 µM", "value": "1.02 ± 0.011"}, {"measurement": "relative viability", "setting": "0.00051 µM", "value": "1.01 ± 0.012"}, {"measurement": "relative viability", "setting": "0.00152 µM", "value": "1.01 ± 0.03"}, {"measurement": "relative viability", "setting": "0.00457 µM", "value": "0.996 ± 0.039"}, {"measurement": "relative viability", "setting": "0.01372 µM", "value": "0.982 ± 0.029"}, {"measurement": "relative viability", "setting": "0.04115 µM", "value": "1.04 ± 0.028"}, {"measurement": "relative viability", "setting": "0.1235 µM", "value": "0.997 ± 0.047"}, {"measurement": "relative viability", "setting": "0.3704 µM", "value": "0.998 ± 0.054"}, {"measurement": "relative viability", "setting": "1.111 µM", "value": "0.95 ± 0.025"}, {"measurement": "relative viability", "setting": "3.333 µM", "value": "0.912 ± 0.048"}, {"measurement": "relative viability", "setting": "10 µM", "value": "0.836 ± 0.013"}]}
{"smiles": "CCc1cc2c(cc1N1CCC(N3CCOCC3)CC1)C(C)(C)c1[nH]c3cc(C#N)ccc3c1C2=O", "note": "[Alectinib]", "values": [{"measurement": "relative viability", "setting": "0.00017 µM", "value": "1.03 ± 0.047"}, {"measurement": "relative viability", "setting": "0.00051 µM", "value": "1.07 ± 0.042"}, {"measurement": "relative viability", "setting": "0.00152 µM", "value": "1.04 ± 0.057"}, {"measurement": "relative viability", "setting": "0.00457 µM", "value": "1.04 ± 0.027"}, {"measurement": "relative viability", "setting": "0.01372 µM", "value": "1.02 ± 0.041"}, {"measurement": "relative viability", "setting": "0.04115 µM", "value": "1.06 ± 0.048"}, {"measurement": "relative viability", "setting": "0.1235 µM", "value": "1.04 ± 0.0046"}, {"measurement": "relative viability", "setting": "0.3704 µM", "value": "0.891 ± 0.27"}, {"measurement": "relative viability", "setting": "1.111 µM", "value": "0.912 ± 0.26"}, {"measurement": "relative viability", "setting": "3.333 µM", "value": "0.941 ± 0.24"}, {"measurement": "relative viability", "setting": "10 µM", "value": "0.905 ± 0.25"}]}
{"smiles": "C[C@@H]1CCN(C(=O)CC#N)C[C@@H]1N(C)c1ncnc2[nH]ccc12", "note": "[Tofacitinib]", "values": [{"measurement": "relative viability", "setting": "0.00017 µM", "value": "1.052 ± 0.0034"}, {"measurement": "relative viability", "setting": "0.00051 µM", "value": "1.07 ± 0.014"}, {"measurement": "relative viability", "setting": "0.00152 µM", "value": "1.02 ± 0.037"}, {"measurement": "relative viability", "setting": "0.00457 µM", "value": "1.06 ± 0.039"}, {"measurement": "relative viability", "setting": "0.01372 µM", "value": "1.02 ± 0.035"}, {"measurement": "relative viability", "setting": "0.04115 µM", "value": "1.02 ± 0.026"}, {"measurement": "relative viability", "setting": "0.1235 µM", "value": "1.01 ± 0.019"}, {"measurement": "relative viability", "setting": "0.3704 µM", "value": "1.01 ± 0.017"}, {"measurement": "relative viability", "setting": "1.111 µM", "value": "1 ± 0.036"}, {"measurement": "relative viability", "setting": "3.333 µM", "value": "0.9697 ± 0.0069"}, {"measurement": "relative viability", "setting": "10 µM", "value": "0.931 ± 0.018"}]}
{"smiles": "CC[C@H](Nc1ncnc2[nH]cnc12)c1nc2cccc(F)c2c(=O)n1-c1ccccc1", "note": "[Idelalisib]", "values": [{"measurement": "relative viability", "setting": "0.00017 µM", "value": "1.12 ± 0.01"}, {"measurement": "relative viability", "setting": "0.00051 µM", "value": "1.12 ± 0.052"}, {"measurement": "relative viability", "setting": "0.00152 µM", "value": "1.09 ± 0.015"}, {"measurement": "relative viability", "setting": "0.00457 µM", "value": "1.09 ± 0.071"}, {"measurement": "relative viability", "setting": "0.01372 µM", "value": "1.06 ± 0.03"}, {"measurement": "relative viability", "setting": "0.04115 µM", "value": "1.07 ± 0.041"}, {"measurement": "relative viability", "setting": "0.1235 µM", "value": "1.05 ± 0.026"}, {"measurement": "relative viability", "setting": "0.3704 µM", "value": "1.03 ± 0.053"}, {"measurement": "relative viability", "setting": "1.111 µM", "value": "0.931 ± 0.041"}, {"measurement": "relative viability", "setting": "3.333 µM", "value": "0.872 ± 0.035"}, {"measurement": "relative viability", "setting": "10 µM", "value": "0.705 ± 0.038"}]}
{"smiles": "COc1cc2nccc(Oc3ccc(NC(=O)Nc4cc(C)on4)c(Cl)c3)c2cc1OC", "note": "[Tivozanib]", "values": [{"measurement": "relative viability", "setting": "0.00017 µM", "value": "1.04 ± 0.022"}, {"measurement": "relative viability", "setting": "0.00051 µM", "value": "1.07 ± 0.017"}, {"measurement": "relative viability", "setting": "0.00152 µM", "value": "1.05 ± 0.019"}, {"measurement": "relative viability", "setting": "0.00457 µM", "value": "1.05 ± 0.025"}, {"measurement": "relative viability", "setting": "0.01372 µM", "value": "1.05 ± 0.026"}, {"measurement": "relative viability", "setting": "0.04115 µM", "value": "1.05 ± 0.028"}, {"measurement": "relative viability", "setting": "0.1235 µM", "value": "1.1 ± 0.04"}, {"measurement": "relative viability", "setting": "0.3704 µM", "value": "1.14 ± 0.048"}, {"measurement": "relative viability", "setting": "1.111 µM", "value": "1.16 ± 0.1"}, {"measurement": "relative viability", "setting": "3.333 µM", "value": "1.16 ± 0.12"}, {"measurement": "relative viability", "setting": "10 µM", "value": "0.812 ± 0.065"}]}
{"smiles": "COc1cc2c(cc1O)CCN[C@]21CS[C@@H]2c3c(OC(C)=O)c(C)c4c(c3[C@H](COC1=O)N1[C@@H]2[C@H]2c3c(cc(C)c(OC)c3O)C[C@@H]([C@@H]1O)N2C)OCO4", "note": "[Trabectedin]", "values": [{"measurement": "relative viability", "setting": "2 pM", "value": "1.096 ± 0.0079"}, {"measurement": "relative viability", "setting": "5 pM", "value": "1.09 ± 0.014"}, {"measurement": "relative viability", "setting": "15 pM", "value": "1.07 ± 0.029"}, {"measurement": "relative viability", "setting": "50 pM", "value": "1.01 ± 0.046"}, {"measurement": "relative viability", "setting": "0.00014 µM", "value": "0.683 ± 0.012"}, {"measurement": "relative viability", "setting": "0.00041 µM", "value": "0.389 ± 0.1"}, {"measurement": "relative viability", "setting": "0.0012 µM", "value": "0.239 ± 0.087"}, {"measurement": "relative viability", "setting": "0.0037 µM", "value": "0.183 ± 0.014"}, {"measurement": "relative viability", "setting": "0.011 µM", "value": "0.203 ± 0.018"}, {"measurement": "relative viability", "setting": "200 fM", "value": "1.07 ± 0.024"}, {"measurement": "relative viability", "setting": "600 fM", "value": "1.08 ± 0.032"}]}
{"smiles": "N#CC[C@H](C1CCCC1)n1cc(-c2ncnc3[nH]ccc23)cn1", "note": "[Ruxolitinib]", "values": [{"measurement": "relative viability", "setting": "0.00017 µM", "value": "1.03 ± 0.03"}, {"measurement": "relative viability", "setting": "0.00051 µM", "value": "1.05 ± 0.026"}, {"measurement": "relative viability", "setting": "0.00152 µM", "value": "1.002 ± 0.01"}, {"measurement": "relative viability", "setting": "0.00457 µM", "value": "1.006 ± 0.0095"}, {"measurement": "relative viability", "setting": "0.01372 µM", "value": "1.02 ± 0.014"}, {"measurement": "relative viability", "setting": "0.04115 µM", "value": "1.03 ± 0.024"}, {"measurement": "relative viability", "setting": "0.1235 µM", "value": "0.987 ± 0.014"}, {"measurement": "relative viability", "setting": "0.3704 µM", "value": "0.985 ± 0.025"}, {"measurement": "relative viability", "setting": "1.111 µM", "value": "0.969 ± 0.015"}, {"measurement": "relative viability", "setting": "3.333 µM", "value": "1 ± 0.03"}, {"measurement": "relative viability", "setting": "10 µM", "value": "0.8995 ± 0.0059"}]}
{"smiles": "Cc1cc(C)c(/C=C2\\C(=O)Nc3ccccc32)[nH]1", "note": "[Semaxanib]", "values": [{"measurement": "relative viability", "setting": "0.00017 µM", "value": "0.973 ± 0.027"}, {"measurement": "relative viability", "setting": "0.00051 µM", "value": "0.969 ± 0.045"}, {"measurement": "relative viability", "setting": "0.00152 µM", "value": "0.969 ± 0.039"}, {"measurement": "relative viability", "setting": "0.00457 µM", "value": "0.97 ± 0.023"}, {"measurement": "relative viability", "setting": "0.01372 µM", "value": "0.948 ± 0.016"}, {"measurement": "relative viability", "setting": "0.04115 µM", "value": "0.914 ± 0.014"}, {"measurement": "relative viability", "setting": "0.1235 µM", "value": "0.922 ± 0.021"}, {"measurement": "relative viability", "setting": "0.3704 µM", "value": "0.901 ± 0.048"}, {"measurement": "relative viability", "setting": "1.111 µM", "value": "0.889 ± 0.043"}, {"measurement": "relative viability", "setting": "3.333 µM", "value": "0.902 ± 0.016"}, {"measurement": "relative viability", "setting": "10 µM", "value": "0.855 ± 0.078"}]}
{"smiles": "O=C(Cc1ccc(-c2ccc(OCCN3CCOCC3)cc2)cn1)NCc1ccccc1", "note": "[KX2-391]", "values": [{"measurement": "relative viability", "setting": "0.00017 µM", "value": "1.09 ± 0.045"}, {"measurement": "relative viability", "setting": "0.00051 µM", "value": "1.06 ± 0.043"}, {"measurement": "relative viability", "setting": "0.00152 µM", "value": "1.06 ± 0.021"}, {"measurement": "relative viability", "setting": "0.00457 µM", "value": "1.05 ± 0.044"}, {"measurement": "relative viability", "setting": "0.01372 µM", "value": "0.96 ± 0.032"}, {"measurement": "relative viability", "setting": "0.04115 µM", "value": "0.584 ± 0.026"}, {"measurement": "relative viability", "setting": "0.1235 µM", "value": "0.385 ± 0.021"}, {"measurement": "relative viability", "setting": "0.3704 µM", "value": "0.368 ± 0.021"}, {"measurement": "relative viability", "setting": "1.111 µM", "value": "0.314 ± 0.015"}, {"measurement": "relative viability", "setting": "3.333 µM", "value": "0.29 ± 0.017"}, {"measurement": "relative viability", "setting": "10 µM", "value": "0.309 ± 0.018"}]}
{"smiles": "COc1cc2c(Oc3ccc4[nH]c(C)cc4c3F)ncnc2cc1OCCCN1CCCC1", "note": "[Cediranib]", "values": [{"measurement": "relative viability", "setting": "0.00017 µM", "value": "1.05 ± 0.045"}, {"measurement": "relative viability", "setting": "0.00051 µM", "value": "1.03 ± 0.055"}, {"measurement": "relative viability", "setting": "0.00152 µM", "value": "1.04 ± 0.048"}, {"measurement": "relative viability", "setting": "0.00457 µM", "value": "1.06 ± 0.038"}, {"measurement": "relative viability", "setting": "0.01372 µM", "value": "1.04 ± 0.029"}, {"measurement": "relative viability", "setting": "0.04115 µM", "value": "1.07 ± 0.067"}, {"measurement": "relative viability", "setting": "0.1235 µM", "value": "1.09 ± 0.068"}, {"measurement": "relative viability", "setting": "0.3704 µM", "value": "1.13 ± 0.065"}, {"measurement": "relative viability", "setting": "1.111 µM", "value": "1.15 ± 0.051"}, {"measurement": "relative viability", "setting": "3.333 µM", "value": "1.15 ± 0.022"}, {"measurement": "relative viability", "setting": "10 µM", "value": "1.13 ± 0.01"}]}
